# Values joined by “and” are separate entries in the source; they are usually repeats but may differ in a detail not shown here. Equal values may be shown once.
# Columns and labels:
# C57BL6 female mice [1] = assay: Mating trial after doxorubicin with or without NMN co-treatment; format: in vivo; conditions: for Number of mating rounds required to achieve pregnancy: the values are: cumulative % of females pregnant by round
# Description: Following oocyte counting and analysis of oocyte meiotic progression, as well as a separate cohort of animals for histological ovarian analysis, a separate cohort of animals were treated as indicated, and mated with stud males of proven track record, to assess the ability of animals to deliver live births following chemotherapy treatment in the presence of absence of NMN co-treatment.
# C57BL6 female mice [2] = assay: Cumulus oocyte complex yield after PMSG, cisplatin with or without NMN; format: in vivo; conditions: per mouse, single dose cisplatin 5 mg/kg i.p. and/or NMN 2 g/L drinking water, two months later
# Description: To assess oocyte yield, and mice were hormonally stimulated to superovulated by intraperitoneal injection with 7.5 IU/mL of Pregnant Mare's Serum Gonadotropin (PMSG) (Folligon; Intervet, Boxmeer, Holland) to stimulate follicular growth. After 44-46 hours, ovaries were collected in HEPES-buffered minimum essential medium (aMEM; Gibco Life Technologies, Grand Island, N.Y.) supplemented with 50 µM of 3-isobuty-1-methylxanthine (IBMX) (Sigma aldrich, NSW, AU) (M2 medium) to maintain meitotic arrest at germinal vesicle stage. Cumulus oocyte complexes (COCs) were isolated from preovulatory follicles using a 27-gauge needle and collected using flame-pulled borosilicate Pasteur pipettes in M2 medium supplemented with 3 mg/ml bovine serum albumin (BSA; Sigma Aldrich, St. Louis, Mo.) and 100 μM IBMX (Sigma Aldrich). Cumulus oocyte complexes (COCs) were mechanically denuded of cumulus cells by pipetting, and the denuded oocytes were transferred to another dish containing a drop of fresh M2-medium plus IBMX on heat block with 37° C. with lid to protect oocytes from light. […]
# oocytes [3] = assay: Meiotic progression (GVBD, PBE) of harvested oocytes, cisplatin with or without NMN; format: in vivo, mice; conditions: cisplatin and/or NMN
# Description: Once harvested from ovaries, oocytes were stored in IBMX media to prevent progression into meiosis. Once released from IBMX, meiotic progression was assessed by the proportions of oocytes achieving germinal vesicle breakdown (GVBD) for meiosis I, and polar body extrusion (PBE) for meiosis II, with results shown in FIGS. 7 and 8 and Tables 2 and 3.
# Again, as in Example 2 above, the oocytes which were harvested from these studies were allowed to progress down meiosis, in order to assess meiotic progression rates (FIGS. 16 and 17 and Table 7 and 8).
# C57BL6 females = assay: Reversal design: oocyte yield, cisplatin followed by NMN 4 weeks later; format: in vivo, mice; conditions: cisplatin 5 mg/kg i.p., per mouse
# Description: To assess oocyte yield, and mice were hormonally stimulated to superovulated by intraperitoneal injection with 7.5 IU/mL of Pregnant Mare's Serum Gonadotropin (PMSG) (Folligon; Intervet, Boxmeer, Holland) to stimulate follicular growth. After 44-46 hours, ovaries were collected in HEPES-buffered minimum essential medium (aMEM; Gibco Life Technologies, Grand Island, N.Y.) supplemented with 50 µM of 3-isobuty-1-methylxanthine (IBMX) (Sigma aldrich, NSW, AU) (M2 medium) to maintain meitotic arrest at germinal vesicle stage. Cumulus oocyte complexes (COCs) were isolated from preovulatory follicles using a 27-gauge needle and collected using flame-pulled borosilicate Pasteur pipettes in M2 medium supplemented with 3 mg/ml bovine serum albumin (BSA; Sigma Aldrich, St. Louis, Mo.) and 100 μM IBMX (Sigma Aldrich). Cumulus oocyte complexes (COCs) were mechanically denuded of cumulus cells by pipetting, and the denuded oocytes were transferred to another dish containing a drop of fresh M2-medium plus IBMX on heat block with 37° C. with lid to protect oocytes from light.
# Next, we decided to investigate whether NMN treatment delivered some time following chemotherapy treatment could actively reverse chemotherapy induced infertility. […]
# oocytes [4] = assay: Spindle structure staining of oocytes from aged NMN treated mice; format: in vivo
# Excerpt: (§1) To determine the impact of NMN on spindle assembly, oocytes from C57BL6 mice were next stained for spindle structure (FIG. 3F).
# As with other sirtuins, SIRT2 is critically dependent for its activity on levels of its enzymatic co-factor NAD^+, which naturally declines with old age. We hypothesized that increasing NAD^+ availability during old age could restore SIRT2 activity, and recapitulate the improvements in fertility observed with old age during SIRT2 over-expression. To test this, non-genetically modified C57BL6 female mice were treated with the NAD^+ precursor nicotinamide mononucleotide (NMN), as in the Examples above. Mice were treated at 15 months of age, when mice normally experience ovarian failure (FIG. 34). Three weeks later, oocytes were harvested, and analysed for spindle structure (FIG. 35).
# ovaries = assay: Histological analysis of ovaries from NMN treated females; format: in vivo, mice
# Excerpt: Ovaries were dissected from freshly euthanased animals, and preserved in 10% neutral buffered formalin for 24 hr, followed by 70% ethanol, until embedding in paraffin blocks. Blocks were sectioned on a microtome and subjected to haematoxylin and eosin (H&E) staining. Primordial follicles were manually counted by a blinded investigator.
# as §1
# C57BL6 mice = assay: Breeding trial with NMN in drinking water; format: in vivo; conditions: NMN 2 g/L drinking water
# Excerpt: FIG. 4. A) is a graph showing litter size. C57BL6 mice were maintained on normal drinking water supplemented with or without NMN (2 g/L) from 2 months of age. From 4 months of age, animals were timed mated with proven stud male C57BL6. Pregnancy was confirmed using micro-ultrasound for the presence of a foetal heartbeat, and the number of pups born in subsequent litters recorded. B) is a graph showing body weights of pups from breeding trials at 12 days of age.
# (§2) To determine whether NMN treatment could improve overall, functional fertility, we conducted a breeding trial in C57BL6 mice. Both pregnancy success rates and litter size (FIG. 4A) were improved in animals that received NMN, further confirming the importance of this mechanism to female fertility. Offspring from females that received NMN treatment developed at a similar rate to offspring from untreated females, even after challenging with high fat feeding (FIG. 5A and 5B).
# [5] = system: offspring of C57BL6 females; assay: Offspring of NMN treated females: development and glucose tolerance; format: in vivo, mice; conditions: offspring from NMN treated versus untreated females
# Excerpt: FIG. 5. Offspring from NMN treated females, or non-NMN treated females, were maintained on a chow diet or subjected to feeding of a high fat diet (HFD) from 8 weeks of age. A) is a graph of body weights of animals until 23 weeks of age. B) is a graph of fat mass of animals after 7 weeks of HFD feeding. C) is a graph of glucose tolerance test in animals at 7 weeks after chow or HFD feeding (2 g/kg, 6 hr fast). D) is a graph of area under the curve for glucose tolerance tests. Each group represents offspring from at least 7 different females. Error bars are SD.
# as §2
smiles,measurement,setting,value
"NC(=O)c1ccc[n+]([C@@H]2O[C@H](COP(=O)([O-])O)[C@@H](O)[C@H]2O)c1 [NMN, nicotinamide mononucleotide]",Number of mating rounds required to achieve pregnancy,C57BL6 female mice [1]; Round 0,0%
same,Number of mating rounds required to achieve pregnancy,C57BL6 female mice [1]; Round 1,60%
same,Number of mating rounds required to achieve pregnancy,C57BL6 female mice [1]; Round 2,80%
same,Number of mating rounds required to achieve pregnancy,C57BL6 female mice [1]; Round 3,88%
same,Body weight of pups born to females receiving NMN,C57BL6 female mice [1]; day 12 of age,no difference in body weight
same,Numbers of cumulus oocyte complexes released from mice,C57BL6 female mice [2],completely rescued and 16 and 14 and 17 and 12 and 13 and 11
same,Proportion of harvested oocytes achieving germinal vesicle breakdown,oocytes [3]; 1 h after release from IBMX,45 % of total
same,Proportion of harvested oocytes achieving germinal vesicle breakdown,oocytes [3]; 2 h after release from IBMX,83 % of total
same,Proportion of harvested oocytes achieving polar body extrusion,oocytes [3]; 14 hr following completion of GVBD,48 % of total
same,Proportion of harvested oocytes achieving polar body extrusion,oocytes [3]; 16 hr following completion of GVBD,60 % of total
same,Proportion of harvested oocytes achieving polar body extrusion,oocytes [3]; 20 hr following completion of GVBD,91 % of total
same,Oocyte yield,C57BL6 females,restoration of oocyte number and 9 and 17 and 10
same,Spindle structure in oocytes,"oocytes [4]; 15 month old C57BL6 females, NMN 3 weeks",reverse severe spindle defects
same,Spindle and chromosome arrangement in oocytes,"oocytes [4]; aged C57BL6 females, NMN 2 g/L drinking water, 4 weeks","bi-polar, barrel-shaped arrangement with well-aligned chromosomes"
same,"Oogonial reserve, histological analysis of ovaries",ovaries,improved oogonial reserve
same,Litter size,C57BL6 mice,improved
same,Pregnancy success rates,C57BL6 mice,improved
same,Glucose tolerance tests in offspring,[5],no change

# Source: patent US20200368198A1, “METHODS FOR INCREASING FERTILITY” (NEWSOUTH INNOVATIONS PTY LIMITED, priority 2017, published 2020)
